The text below walks through data of PubChem BioAssay AID328 (DTP/NCI, 2004).

This assay deals with BDF1 mice, P388 leukemia ip, median survival T/C. Description: NCI In Vivo Anticancer Drug Screen. Data for tumor model P388 Leukemia (intraperitoneal) in B6D2F1 (BDF1) mice. The note with it: endpoint: median survival time, higher = longer survival. The procedure, abridged:
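T/C = treated-group survival ÷ vehicle-control survival; tumour transplanted into mice before dosing.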

[1] abbreviates: dose: 100.0 mg/kg/injection, schedule: Q04DX003 (ip), vehicle: Klucel (hydroxypropylcellulose) (HPC).
The mark [2] stands for this setting: dose: 200.0 mg/kg/injection, schedule: Q04DX003 (ip), vehicle: Klucel (hydroxypropylcellulose) (HPC).
Where [3] appears, read: dose: 50.0 mg/kg/injection, schedule: Q01DX009 (ip), vehicle: saline with Tween-80.
Where [4] appears, read: dose: 100.0 mg/kg/injection, schedule: Q01DX009 (ip), vehicle: saline with Tween-80.
[5] abbreviates: dose: 200.0 mg/kg/injection, schedule: Q01DX009 (ip), vehicle: saline with Tween-80.
Setting [6] is: dose: 100.0 mg/kg/injection, schedule: Q04DX003 (ip), vehicle: saline with Tween-80.
The mark [7] stands for this setting: dose: 200.0 mg/kg/injection, schedule: Q04DX003 (ip), vehicle: saline with Tween-80.
Where [8] appears, read: dose: 400.0 mg/kg/injection, schedule: Q04DX003 (ip), vehicle: saline with Tween-80.
The mark [9] stands for this setting: dose: 50.0 mg/kg/injection, schedule: Q01DX005 (ip), vehicle: saline with Tween-80.
Setting [10] is: dose: 100.0 mg/kg/injection, schedule: Q01DX005 (ip), vehicle: saline with Tween-80.
[11] abbreviates: dose: 200.0 mg/kg/injection, schedule: Q01DX005 (ip), vehicle: saline with Tween-80.
The mark [12] stands for this setting: dose: 12.5 mg/kg/injection, schedule: Q04DX003 (ip), vehicle: saline with Tween-80.
Where [13] appears, read: dose: 25.0 mg/kg/injection, schedule: Q04DX003 (ip), vehicle: saline.
The mark [14] stands for this setting: dose: 50.0 mg/kg/injection, schedule: Q04DX003 (ip), vehicle: saline.
Where [15] appears, read: dose: 100.0 mg/kg/injection, schedule: Q04DX003 (ip), vehicle: saline.
[16] abbreviates: dose: 200.0 mg/kg/injection, schedule: Q04DX003 (ip), vehicle: saline.
Setting [17] is: dose: 400.0 mg/kg/injection, schedule: Q04DX003 (ip), vehicle: saline.
Setting [18] is: dose: 100.0 mg/kg/injection, schedule: Q01DX009 (ip), vehicle: other.
The mark [19] stands for this setting: dose: 400.0 mg/kg/injection, schedule: Q04DX003 (ip), vehicle: Klucel (hydroxypropylcellulose) (HPC).

Several values for one entry are separate records, joined by “and”; a condition that tells them apart may be missing. Equal values may be shown once. Toxic doses and inconclusive results are not listed.

Regarding `COC(OC)C1(O)CC(C(C)COC2CCCCO2)OC(=O)N1` (stereo not given), the T/C (dose: 50.0 mg/kg/injection, schedule: Q04DX003 (ip), vehicle: Klucel (hydroxypropylcellulose) (HPC)) was 102 % of control; the T/C under setting [1] is 106 % of control; the T/C under setting [2] is 106 % of control.
For the compound `C=CCCc1cc(C(=O)N(c2ccccc2)C(C(=O)O)c2ccccc2)ccc1OC` (stereo not given), the T/C was 101 % of control (dose: 100.0 mg/kg/injection, schedule: Q04DX002 (ip), vehicle: saline with Tween-80); 100 % of control (dose: 200.0 mg/kg/injection, schedule: Q04DX002 (ip), vehicle: saline with Tween-80); 108 % of control (dose: 400.0 mg/kg/injection, schedule: Q04DX002 (ip), vehicle: saline with Tween-80).
As for `CCOC1=NCCCCCCC1`, the T/C by setting is: under setting [3], 98 % of control; under setting [4], 97 % of control; under setting [5], 99 % of control.
Consider `Cc1cccc(NC(=S)N(C)C)c1`, for which the T/C runs as follows: under setting [6], 95 % of control; under setting [7], 100 % of control; under setting [8], 100 % of control.
As for `c1ccc(CCN2COc3c(ccc4cccnc34)C2)cc1`, under setting [6], the T/C was 95 % of control.
`O=C(NC(Cl)=C(Cl)Cl)P(=O)(c1ccccc1)c1ccccc1`: the T/C reads like this: under setting [9], 92 % of control; under setting [10], 111 % of control; under setting [11], 95 % of control.
As for `O=[N+]([O-])c1ccc2c(c1)[nH]c1ccccc12`, the T/C by setting is: under setting [3], 113 % of control; under setting [4], 115 % of control; under setting [5], 114 % of control.
Turning to `O=[N+]([O-])c1ccc(N(CCO)CCO)c2c1no[n+]2[O-]`, the T/C is 112 % of control (dose: 7.5 mg/kg/injection, schedule: Q01DX009 (ip), vehicle: saline with Tween-80); 112 % of control (dose: 15.0 mg/kg/injection, schedule: Q01DX009 (ip), vehicle: saline with Tween-80); 113 % of control (dose: 30.0 mg/kg/injection, schedule: Q01DX009 (ip), vehicle: saline with Tween-80); 160 % of control (dose: 32.0 mg/kg/injection, schedule: Q04DX003 (ip), vehicle: saline with Tween-80); 121 % of control (dose: 64.0 mg/kg/injection, schedule: Q04DX003 (ip), vehicle: saline with Tween-80).
Take `ClCCN(CCCl)CCCN1c2ccccc2Sc2ccccc21`: the T/C (dose: 3.12 mg/kg/injection, schedule: Q04DX003 (ip), vehicle: saline with Tween-80) was 150 % of control; the T/C under setting [12] is 158 % of control and 169 % of control; the T/C (dose: 25.0 mg/kg/injection, schedule: Q04DX003 (ip), vehicle: saline with Tween-80) is 152 % of control.
As for `Cc1ccc(S(=O)(=O)Oc2ccc([N+](=O)[O-])cc2[N+](=O)[O-])cc1`, the T/C was 104 % of control under setting [13], 109 % of control under setting [14] and 109 % of control under setting [15].
For the compound `CC(C)(CO)Nc1ccccc1`, the T/C reads like this: under setting [15], 110 % of control; under setting [16], 100 % of control; under setting [17], 100 % of control.
On to `CCCCCCCCCC(O)CCCCCCCCC`, for which the T/C under setting [18] was 100 % of control; the T/C (dose: 200.0 mg/kg/injection, schedule: Q01DX009 (ip), vehicle: other) is 95 % of control; the T/C (dose: 400.0 mg/kg/injection, schedule: Q01DX009 (ip), vehicle: other) was 110 % of control.
In the case of `C=CCN(CC=C)c1ncnc2[nH]ncc12`, the T/C is, setting by setting: (dose: 25.0 mg/kg/injection, schedule: Q01DX009 (ip), vehicle: saline with Tween-80) 100 % of control; under setting [3], 100 % of control; under setting [4], 109 % of control.
In the case of `FC(F)(F)c1ccc2c(c1)N(CCCN1CCN(CCN3CCOCC3)CC1)c1ccccc1S2`, the T/C (dose: 12.5 mg/kg/injection, schedule: Q04DX003 (ip), vehicle: saline) was 99 % of control and 100 % of control; the T/C under setting [13] is 86 % of control and 99 % of control; the T/C under setting [14] is 104 % of control and 112 % of control.
Regarding `CCSCCCCSCC`, the T/C was 104 % of control under setting [6], 104 % of control under setting [7] and 100 % of control under setting [8].
For the compound `Cc1cc(Cl)nc(Cl)c1C(N)=O`, the T/C reads like this: under setting [9], 100 % of control; under setting [10], 100 % of control; under setting [11], 100 % of control.
Turning to `COB(CCCCB(OC)OC)OC`, the T/C is, setting by setting: (dose: 100.0 mg/kg/injection, schedule: Q04DX003 (ip), vehicle: saline sonified) 90 % of control; (dose: 200.0 mg/kg/injection, schedule: Q04DX003 (ip), vehicle: saline sonified) 86 % of control; (dose: 400.0 mg/kg/injection, schedule: Q04DX003 (ip), vehicle: saline sonified) 100 % of control.
Consider `Cc1ccc(C(SCC(N)C(=O)O)(c2ccccc2)c2ccc(C)cc2)cc1` (stereo not given), for which the T/C by setting is: under setting [3], 268 % of control; under setting [4], 172 % of control; (dose: 132.0 mg/kg/injection, schedule: Q04DX003 (ip), vehicle: saline with Tween-80) 190 % of control; under setting [7], 231 % of control.
As for `COC(OC)c1[nH]c(=S)[nH]c(=O)c1C`, the T/C reads like this: (dose: 100.0 mg/kg/injection, schedule: Q04DX003 (sc), vehicle: olive oil, sesame oil, peanut oil) 90 % of control; (dose: 200.0 mg/kg/injection, schedule: Q04DX003 (sc), vehicle: olive oil, sesame oil, peanut oil) 95 % of control; (dose: 400.0 mg/kg/injection, schedule: Q04DX003 (sc), vehicle: olive oil, sesame oil, peanut oil) 90 % of control.
As to `COc1cc(C=Nc2cccc(Br)c2)ccc1N(CCCl)CCCl`, the T/C reads like this: (dose: 5.5 mg/kg/injection, schedule: Q04DX003 (ip), vehicle: saline with Tween-80) 159 % of control; (dose: 8.3 mg/kg/injection, schedule: Q04DX003 (ip), vehicle: saline with Tween-80) 177 % of control; under setting [12], 190 % of control; (dose: 25.0 mg/kg/injection, schedule: Q04DX003 (ip), vehicle: other) 250 % of control; (dose: 100.0 mg/kg/injection, schedule: Q01DX009 (ip), vehicle: saline sonified) 90 % of control.
Turning to `O=C(C1CC2CCC1C2)C1CC2CCC1C2` (stereo not given), the T/C is 95 % of control under setting [18], 100 % of control under setting [1], 108 % of control under setting [2] and 104 % of control under setting [19].
With `COC(=O)C(N)CSC` (stereo not given), the T/C is, setting by setting: (dose: 100.0 mg/kg/injection, schedule: Q01DX009 (ip), vehicle: saline) 103 % of control; under setting [15], 113 % of control; (dose: 200.0 mg/kg/injection, schedule: Q01DX009 (ip), vehicle: saline) 106 % of control; under setting [16], 90 % of control; (dose: 400.0 mg/kg/injection, schedule: Q01DX009 (ip), vehicle: saline) 106 % of control; under setting [17], 104 % of control.
Turning to `CCC1(c2ccccc2)NC(=O)N(C)C1=O` (stereo not given), the T/C was 100 % of control (dose: 100.0 mg/kg/injection, schedule: Q01DX009 (ip), vehicle: Klucel (hydroxypropylcellulose) (HPC)); 104 % of control under setting [1]; 100 % of control (dose: 200.0 mg/kg/injection, schedule: Q01DX009 (ip), vehicle: Klucel (hydroxypropylcellulose) (HPC)); 95 % of control under setting [2]; 95 % of control under setting [19].
Take `O=C(Nc1cccc(C2=NCCCN2)c1)Nc1ccc(NC(=O)Nc2cccc(C3=NCCCN3)c2)c(Cl)c1`: the T/C is 227 % of control (dose: 10.0 mg/kg/injection, schedule: Q01DX009 (ip), vehicle: saline with Tween-80); 182 % of control (dose: 11.0 mg/kg/injection, schedule: Q04DX003 (ip), vehicle: saline with Tween-80); 217 % of control (dose: 17.0 mg/kg/injection, schedule: Q04DX003 (ip), vehicle: saline with Tween-80); 204 % of control (dose: 20.0 mg/kg/injection, schedule: Q01DX009 (ip), vehicle: saline with Tween-80); 195 % of control and 209 % of control (dose: 26.0 mg/kg/injection, schedule: Q04DX003 (ip), vehicle: saline with Tween-80); 272 % of control (dose: 40.0 mg/kg/injection, schedule: Q04DX003 (ip), vehicle: saline with Tween-80). Moreover, the T/C (dose: 60.0 mg/kg/injection, schedule: Q04DX003 (ip), vehicle: saline with Tween-80) is 272 % of control.
